Experimental findings from patent US9242993B2, “Morpholino substituted bicyclic pyrimidine urea or carbamate derivatives as mTOR inhibitors” (CELLZOME LIMITED, priority 2011, dated 2016) are described below.

Assay [1] relates to S6RP serine-240/244 phosphorylation. As to the kind of experiment: In vitro phospho-S6 cellular assay. The class given is cell-based. Conditions: Homo sapiens; HEK293T/17 cells, 2 hours; read-out: pS6 inhibition value (IC50), activity level. An outline of the steps:
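HEK293T/17 cells (40,000/well for pS6RP, 80,000/well for pAkt) in DMEM, 2% FCS treated 2 h at 37 °C with 8 compound concentrations (0.1% DMSO). Lysates assayed by MesoScale sandwich electrochemiluminescence for pS6RP Ser240/244 or pAkt Ser473. Curves fitted by sigmoidal variable-slope regression.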

The target in assay [2] is DNA-dependent protein kinase (DNA-PK) (Homo sapiens, UniProt P78527). As to the kind of experiment: biochemical.
Assay [3] relates to IFNγ release in whole blood. As to the kind of experiment: In vitro human whole blood assay (IFNγ release). Conditions: αCD3/αCD28 and IL-2 stimulation, 18 hours, read-out: WB inhibition value (pIC50) (converted). It is filed as cell-based. On the procedure: This assay measures IFNγ release in whole blood after αCD3/αCD28 and IL-2 treatment. The whole blood contains circulating T lymphocytes; αCD3/αCD28 stimulation mimics antigen receptor signalling, resulting in epigenetic changes to the IFNG gene locus, such that when IL-2 is added, IFNγ is produced.
Human whole blood, with Na-heparin as the anticoagulant, is obtained from Clinical Trials Laboratory Services. Blood is diluted 1.4 times with RPMI 1640 (Lonza, BE12-167F) and 175 μl/well is distributed in a low evaporation 96-well plates (Falcon, BD Labware, 353072). Blood is treated with 10 concentrations of test compounds or DMSO alone for controls (final DMSO concentration 0.2%) and incubated at 37° C. for 1 hour. Blood is then stimulated with 1 μg/ml αCD3 (R&D Systems, MAB100), 1 μg/ml αCD28 (BD Pharmingen, 555725) and IL-2 at 10 ng/ml (Peprotech, 200-02). Blood is then left to incubate at 37° C. for 18 hours. After, plates are spun at 250 g for 5 minutes to pellet blood cells and 25 μl of plasma is transferred to a MesoScale plate coated with an antibody to IFNγ (MesoScale Discovery K151AEC-2) containing 25 μl/well MesoScale Discovery Blocking Solution-2. Plates have been blocked by incubating with 25 μl/well MesoScale Discovery Blocking Solution-2 for 30 minutes at room temperature. After the transfer of sera to the MSD plate, the IFNγ protein is captured on the coated antibody by incubation at room temperature for 2 hour with gentle shaking. After the capture step the plate is washed three times with 150 μl/well of 1×PBS-Tween wash buffer and 25 μl/well detection antibody conjugated with a Sulfo-Tag is added and incubated for 2 hours at room temperature with gentle shaking. Subsequently the antibody solution is removed and the plate is washed 3 times with 150 μl/well 1×PBS-Tween wash buffer and 150 μl/well MesoScale Discovery Read buffer is added. The plates are analysed on a MSD 2400 Plate Reader (MesoScale Discovery). Data analysis is performed using nonlinear regression for a sigmoidal dose-response with a variable slope.

In a further assay the target is mTOR (Homo sapiens, UniProt P42345). As to the kind of experiment: biochemical.

A value given as a limit tells only on which side of the number the result lay.

Sequence of DNA-dependent protein kinase (DNA-PK) (P78527 whole entry): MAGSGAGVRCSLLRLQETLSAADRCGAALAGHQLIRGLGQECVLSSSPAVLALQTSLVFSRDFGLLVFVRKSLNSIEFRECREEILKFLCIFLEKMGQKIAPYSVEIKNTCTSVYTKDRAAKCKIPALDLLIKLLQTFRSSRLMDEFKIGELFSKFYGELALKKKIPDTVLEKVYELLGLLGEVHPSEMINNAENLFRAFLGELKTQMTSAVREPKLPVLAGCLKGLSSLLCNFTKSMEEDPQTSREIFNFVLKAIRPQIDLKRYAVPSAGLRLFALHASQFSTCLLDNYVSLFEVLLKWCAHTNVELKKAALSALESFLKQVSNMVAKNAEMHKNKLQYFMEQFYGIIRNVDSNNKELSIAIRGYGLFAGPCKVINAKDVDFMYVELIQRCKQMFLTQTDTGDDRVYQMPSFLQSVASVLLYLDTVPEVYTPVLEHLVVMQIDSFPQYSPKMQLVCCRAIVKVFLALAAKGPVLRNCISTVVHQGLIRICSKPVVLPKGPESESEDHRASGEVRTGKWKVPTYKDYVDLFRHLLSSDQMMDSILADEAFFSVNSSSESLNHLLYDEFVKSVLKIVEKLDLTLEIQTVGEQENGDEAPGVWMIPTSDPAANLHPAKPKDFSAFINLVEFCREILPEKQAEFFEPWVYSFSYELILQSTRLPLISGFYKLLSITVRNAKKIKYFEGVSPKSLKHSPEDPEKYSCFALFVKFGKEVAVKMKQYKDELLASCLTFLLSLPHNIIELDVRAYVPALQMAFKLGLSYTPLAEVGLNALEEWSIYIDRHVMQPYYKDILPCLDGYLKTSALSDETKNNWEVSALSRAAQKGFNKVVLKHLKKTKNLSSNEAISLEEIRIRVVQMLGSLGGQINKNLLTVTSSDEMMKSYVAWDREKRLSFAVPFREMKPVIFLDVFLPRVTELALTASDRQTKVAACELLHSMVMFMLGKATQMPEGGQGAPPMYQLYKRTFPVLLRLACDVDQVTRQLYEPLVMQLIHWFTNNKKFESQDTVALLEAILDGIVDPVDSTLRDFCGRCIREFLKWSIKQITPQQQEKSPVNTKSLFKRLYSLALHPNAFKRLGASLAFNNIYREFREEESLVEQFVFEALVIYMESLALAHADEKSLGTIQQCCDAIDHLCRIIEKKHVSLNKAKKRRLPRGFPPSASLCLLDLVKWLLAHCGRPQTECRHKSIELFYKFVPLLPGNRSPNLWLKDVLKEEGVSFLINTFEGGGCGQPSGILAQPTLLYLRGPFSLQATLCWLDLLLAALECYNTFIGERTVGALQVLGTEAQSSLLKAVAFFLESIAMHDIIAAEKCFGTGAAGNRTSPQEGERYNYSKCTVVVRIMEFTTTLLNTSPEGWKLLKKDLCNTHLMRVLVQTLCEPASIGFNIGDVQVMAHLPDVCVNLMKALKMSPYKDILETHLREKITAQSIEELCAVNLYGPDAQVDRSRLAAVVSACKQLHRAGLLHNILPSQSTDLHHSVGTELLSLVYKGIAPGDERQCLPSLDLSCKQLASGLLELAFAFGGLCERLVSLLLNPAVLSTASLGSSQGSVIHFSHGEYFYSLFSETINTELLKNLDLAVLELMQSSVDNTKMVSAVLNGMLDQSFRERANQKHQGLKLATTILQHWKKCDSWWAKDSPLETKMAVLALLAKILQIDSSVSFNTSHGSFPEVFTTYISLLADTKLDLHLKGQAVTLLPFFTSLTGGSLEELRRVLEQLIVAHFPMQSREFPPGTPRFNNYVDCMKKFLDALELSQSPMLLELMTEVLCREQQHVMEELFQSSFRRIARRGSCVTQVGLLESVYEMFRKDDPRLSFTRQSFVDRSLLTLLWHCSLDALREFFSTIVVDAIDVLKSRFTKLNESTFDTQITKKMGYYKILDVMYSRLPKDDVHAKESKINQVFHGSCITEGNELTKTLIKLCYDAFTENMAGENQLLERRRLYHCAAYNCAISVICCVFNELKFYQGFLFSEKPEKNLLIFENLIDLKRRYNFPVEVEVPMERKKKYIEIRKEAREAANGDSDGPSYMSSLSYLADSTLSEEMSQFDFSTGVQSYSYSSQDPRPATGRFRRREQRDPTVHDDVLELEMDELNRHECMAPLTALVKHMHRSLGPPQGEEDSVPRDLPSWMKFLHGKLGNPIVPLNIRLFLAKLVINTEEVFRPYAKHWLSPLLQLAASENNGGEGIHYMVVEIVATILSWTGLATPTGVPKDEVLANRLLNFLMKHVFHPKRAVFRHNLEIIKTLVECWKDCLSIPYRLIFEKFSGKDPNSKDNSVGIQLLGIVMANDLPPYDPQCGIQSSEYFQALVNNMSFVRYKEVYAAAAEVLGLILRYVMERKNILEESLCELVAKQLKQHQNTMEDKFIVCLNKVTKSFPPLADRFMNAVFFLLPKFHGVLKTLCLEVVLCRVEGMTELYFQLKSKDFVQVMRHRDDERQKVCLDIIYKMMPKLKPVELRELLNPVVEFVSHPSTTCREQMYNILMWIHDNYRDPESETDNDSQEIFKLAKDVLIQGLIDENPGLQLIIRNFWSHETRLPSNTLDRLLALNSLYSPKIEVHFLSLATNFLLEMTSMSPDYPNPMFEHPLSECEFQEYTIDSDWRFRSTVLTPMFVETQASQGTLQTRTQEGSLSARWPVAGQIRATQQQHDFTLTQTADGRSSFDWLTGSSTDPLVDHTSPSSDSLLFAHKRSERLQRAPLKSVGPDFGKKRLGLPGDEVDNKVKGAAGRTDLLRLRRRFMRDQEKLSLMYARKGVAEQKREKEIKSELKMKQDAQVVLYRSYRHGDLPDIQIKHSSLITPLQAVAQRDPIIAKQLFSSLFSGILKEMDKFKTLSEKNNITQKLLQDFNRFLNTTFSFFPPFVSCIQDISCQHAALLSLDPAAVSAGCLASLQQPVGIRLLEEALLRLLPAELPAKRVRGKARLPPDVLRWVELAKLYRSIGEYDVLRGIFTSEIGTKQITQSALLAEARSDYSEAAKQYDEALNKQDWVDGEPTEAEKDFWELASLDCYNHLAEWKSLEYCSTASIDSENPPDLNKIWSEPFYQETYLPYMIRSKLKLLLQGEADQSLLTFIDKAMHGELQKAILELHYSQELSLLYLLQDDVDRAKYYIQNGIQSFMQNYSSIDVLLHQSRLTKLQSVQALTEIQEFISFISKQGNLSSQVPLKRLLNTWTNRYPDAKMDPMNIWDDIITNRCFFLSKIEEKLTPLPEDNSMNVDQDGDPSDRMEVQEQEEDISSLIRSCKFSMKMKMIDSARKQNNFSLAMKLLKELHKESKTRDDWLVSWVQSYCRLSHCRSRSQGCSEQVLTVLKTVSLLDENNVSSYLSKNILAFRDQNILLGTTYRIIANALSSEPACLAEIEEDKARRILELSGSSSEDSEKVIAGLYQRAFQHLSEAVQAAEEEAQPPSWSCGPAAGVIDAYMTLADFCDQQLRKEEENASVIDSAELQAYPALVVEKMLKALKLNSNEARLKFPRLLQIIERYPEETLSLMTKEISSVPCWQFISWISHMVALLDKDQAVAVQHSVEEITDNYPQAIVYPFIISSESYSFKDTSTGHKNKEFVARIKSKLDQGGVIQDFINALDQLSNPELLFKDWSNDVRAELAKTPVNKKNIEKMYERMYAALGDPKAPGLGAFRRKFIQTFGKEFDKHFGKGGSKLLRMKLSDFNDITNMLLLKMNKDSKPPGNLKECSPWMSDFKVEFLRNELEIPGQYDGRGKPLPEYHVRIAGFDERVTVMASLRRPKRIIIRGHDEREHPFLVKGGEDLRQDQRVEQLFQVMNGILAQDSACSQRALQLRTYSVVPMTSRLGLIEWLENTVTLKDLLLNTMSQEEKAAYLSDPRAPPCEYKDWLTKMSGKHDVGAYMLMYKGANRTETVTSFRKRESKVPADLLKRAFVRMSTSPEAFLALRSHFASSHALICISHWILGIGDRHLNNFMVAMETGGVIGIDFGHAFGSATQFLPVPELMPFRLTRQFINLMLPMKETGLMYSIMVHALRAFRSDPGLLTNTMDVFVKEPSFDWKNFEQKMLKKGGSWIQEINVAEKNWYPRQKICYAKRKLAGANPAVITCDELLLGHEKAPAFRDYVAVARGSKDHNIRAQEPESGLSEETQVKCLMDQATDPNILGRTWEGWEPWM

Regarding `CC[C@H]1COCCN1c1nc(-c2ccc(NC(=O)NC3CC3)cc2)nc2c1CS(=O)(=O)C2(C)C` [Example 51, (S)-1-cyclopropyl-3-(4-(4-(3-ethylmorpholino)-7,7-dimethyl-6,6-dioxido-5,7-dihydrothieno[3,4-d]pyrimidin-2-yl)phenyl)urea], the IC50 was less than 100 nM in assay [1], more than 10000 nM in assay [2], 158 nM in assay [3] and less than 100 nM against mTOR.
With `CNC(=O)Nc1ccc(-c2nc3c(c(N4CCOC[C@@H]4C)n2)C(C)S(=O)(=O)C3)cc1` (stereo partly drawn) [Example 58, 1-methyl-3-(4-(5-methyl-4-((S)-3-methylmorpholino)-6,6-dioxido-5,7-dihydrothieno[3,4-d]pyrimidin-2-yl)phenyl)urea], the IC50 was less than 100 nM in assay [1], more than 10000 nM in assay [2], 251 nM in assay [3] and less than 100 nM at mTOR.
With `C[C@H]1COCCN1c1nc(-c2ccc(NC(=O)NCCF)cc2)nc2c1CS(=O)(=O)C2(C)C` [Example 61, (S)-1-(4-(7,7-dimethyl-4-(3-methylmorpholino)-6,6-dioxido-5,7-dihydrothieno[3,4-d]pyrimidin-2-yl)phenyl)-3-(2-fluoroethyl)urea], the IC50 is less than 100 nM in assay [1], more than 10000 nM in assay [2], 251 nM in assay [3] and less than 100 nM at mTOR.
For `CC1Cc2nc(-c3ccc(NC(=O)NC4CC4)cc3)nc(N3CCOC[C@@H]3C)c2C(C)S1(=O)=O` (stereo partly drawn) [Example 72, 1-cyclopropyl-3-(4-(5,7-dimethyl-4-((S)-3-methylmorpholino)-6,6-dioxido-7,8-dihydro-5H-thiopyrano[4,3-d]pyrimidin-2-yl)phenyl)urea], the IC50 in assay [1] is less than 100 nM; in assay [2], more than 10000 nM; in assay [3], 398 nM; on mTOR, less than 100 nM.
For the compound `CCNC(=O)Nc1ccc(-c2nc(N3CCOC[C@@H]3CC)c3c(n2)C(C)(C)S(=O)(=O)C3)cc1` [Example 56, (S)-1-ethyl-3-(4-(4-(3-ethylmorpholino)-7,7-dimethyl-6,6-dioxido-5,7-dihydrothieno[3,4-d]pyrimidin-2-yl)phenyl)urea], the IC50 is more than 10000 nM in assay [2], 316 nM in assay [3] and less than 100 nM against mTOR.
Turning to `CCNC(=O)Nc1ccc(-c2nc(N3CCOC[C@H]3C)c3c(n2)C(C)(C)S(=O)(=O)C3)cc1` [Example 55, (R)-1-(4-(7,7-dimethyl-4-(3-methylmorpholino)-6,6-dioxido-5,7-dihydrothieno[3,4-d]pyrimidin-2-yl)phenyl)-3-ethylurea], the figures for the IC50 in assay [1], in assay [2] and in assay [3] were less than 100 nM, more than 10000 nM and 100 nM, respectively.
In the case of `CCNC(=O)Nc1ccc(-c2nc(N3CCOC[C@@H]3C)c3c(n2)C(C)(C)S(=O)(=O)C3)c(F)c1` [Example 69, (S)-1-(4-(7,7-dimethyl-4-(3-methylmorpholino)-6,6-dioxido-5,7-dihydrothieno[3,4-d]pyrimidin-2-yl)-3-fluorophenyl)-3-ethylurea], the IC50 is less than 100 nM in assay [1], more than 10000 nM in assay [2], 126 nM in assay [3] and less than 100 nM against mTOR.
As for `CCNC(=O)Nc1ccc(-c2nc3c(c(N4CCOC[C@@H]4C)n2)CS(=O)(=O)C(C)(C)C3)cc1` [Example 73, (S)-1-(4-(7,7-dimethyl-4-(3-methylmorpholino)-6,6-dioxido-7,8-dihydro-5H-thiopyrano[4,3-d]pyrimidin-2-yl)phenyl)-3-ethylurea], the IC50 was less than 100 nM in assay [1], more than 10000 nM in assay [2], 63.1 nM in assay [3] and less than 100 nM on mTOR.
`CCNC(=O)Nc1ccc(-c2nc3c(c(N4CCOC[C@@H]4CC)n2)[C@H](C)S(=O)(=O)C3)cc1` [Example 53, 1-ethyl-3-(4-((S)-4-((S)-3-ethylmorpholino)-5-methyl-6,6-dioxido-5,7-dihydrothieno[3,4-d]pyrimidin-2-yl)phenyl)urea]: the IC50 was less than 100 nM in assay [1], more than 10000 nM in assay [2], 63.1 nM in assay [3] and less than 100 nM at mTOR.
Consider `C[C@H]1COCCN1c1nc(-c2ccc(NC(=O)NC3COC3)cc2)nc2c1CS(=O)(=O)C2(C)C` [Example 68, (S)-1-(4-(7,7-dimethyl-4-(3-methylmorpholino)-6,6-dioxido-5,7-dihydrothieno[3,4-d]pyrimidin-2-yl)phenyl)-3-(oxetan-3-yl)urea], for which the IC50 was less than 100 nM in assay [1], more than 10000 nM in assay [2], 316 nM in assay [3] and 100 to 1000 nM on mTOR.
The like results for `CNC(=O)Nc1ccc(-c2nc(N3CCOC[C@@H]3C)c3c(n2)C(C)(C)S(=O)(=O)C3)c(F)c1` [Example 66, (S)-1-(4-(7,7-dimethyl-4-(3-methylmorpholino)-6,6-dioxido-5,7-dihydrothieno[3,4-d]pyrimidin-2-yl)-3-fluorophenyl)-3-methylurea] were, in that order, less than 100 nM, more than 10000 nM, 1000 nM and less than 100 nM.
As for `CCNC(=O)Nc1ccc(-c2nc3c(c(N4CCOC[C@@H]4C)n2)C(C)S(=O)(=O)C3)cc1F` (stereo partly drawn) [Example 50, 1-ethyl-3-(2-fluoro-4-(5-methyl-4-((S)-3-methylmorpholino)-6,6-dioxido-5,7-dihydrothieno[3,4-d]pyrimidin-2-yl)phenyl)urea], the results for the IC50 (in assay [1]; in assay [3]; against mTOR) were less than 100 nM, 1000 nM and less than 100 nM, respectively.
With `CNC(=O)Nc1ccc(-c2nc(N3CCOC[C@@H]3C)c3c(n2)C(C)(C)S(=O)(=O)C3)cc1` [Example 57, (S)-1-(4-(7,7-dimethyl-4-(3-methylmorpholino)-6,6-dioxido-5,7-dihydrothieno[3,4-d]pyrimidin-2-yl)phenyl)-3-methylurea], the figures for the IC50 (in assay [2]; in assay [3]; against mTOR) were more than 10000 nM, 251 nM and less than 100 nM, respectively.
Consider `CNC(=O)Nc1ccc(-c2nc(N3CCOC[C@@H]3C)c3c(n2)C(C)(C)S(=O)(=O)C3C)cc1` (stereo partly drawn) [Example 77, 1-methyl-3-(4-(5,7,7-trimethyl-4-((S)-3-methylmorpholino)-6,6-dioxido-5,7-dihydrothieno[3,4-d]pyrimidin-2-yl)phenyl)urea], for which the IC50 in assay [1] is less than 100 nM; in assay [3], 200 nM; on mTOR, less than 100 nM.
In the case of `CCNC(=O)Nc1ccc(-c2nc3c(c(N4CCOC[C@@H]4C)n2)C(C)S(=O)(=O)C3)cc1` (stereo partly drawn) [Example 38, 1-ethyl-3-(4-(5-methyl-4-((S)-3-methylmorpholino)-6,6-dioxido-5,7-dihydrothieno[3,4-d]pyrimidin-2-yl)phenyl)urea], the IC50 in assay [1] was less than 100 nM; in assay [3], 158 nM; on mTOR, less than 100 nM.
For the compound `CC1c2c(N3CCOC[C@@H]3C)nc(-c3ccc(NC(=O)NCCF)cc3)nc2C(C)(C)S1(=O)=O` (stereo partly drawn) [Example 75, 1-(2-fluoroethyl)-3-(4-(5,7,7-trimethyl-4-((S)-3-methylmorpholino)-6,6-dioxido-5,7-dihydrothieno[3,4-d]pyrimidin-2-yl)phenyl)urea], the IC50 was less than 100 nM in assay [1], 126 nM in assay [3] and less than 100 nM on mTOR.
As to `CC1c2c(nc(-c3ccc(NC(=O)NCC4CC4)cc3)nc2N2CCOC[C@@H]2C)CS1(=O)=O` (stereo partly drawn) [Example 46, 1-(cyclopropylmethyl)-3-(4-(5-methyl-4-((S)-3-methylmorpholino)-6,6-dioxido-5,7-dihydrothieno[3,4-d]pyrimidin-2-yl)phenyl)urea], the results for the IC50 (in assay [1]; in assay [3]; at mTOR) were less than 100 nM, 2000 nM and less than 100 nM, respectively.
